pIC50: −log10 of the molar value. Bounds are passed on as bounds.

Sequence of Carbonic anhydrase 5A, mitochondrial (P35218 whole entry): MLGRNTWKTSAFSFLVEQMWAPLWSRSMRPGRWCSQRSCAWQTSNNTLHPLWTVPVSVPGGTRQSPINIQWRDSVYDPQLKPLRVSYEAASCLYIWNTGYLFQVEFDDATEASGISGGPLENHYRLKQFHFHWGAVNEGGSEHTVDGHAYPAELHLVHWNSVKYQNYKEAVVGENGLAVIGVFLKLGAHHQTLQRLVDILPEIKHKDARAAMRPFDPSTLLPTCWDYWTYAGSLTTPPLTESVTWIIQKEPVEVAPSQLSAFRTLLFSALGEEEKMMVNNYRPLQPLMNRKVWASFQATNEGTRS

The first assay concerns the target Carbonic anhydrase 5A, mitochondrial (Homo sapiens, UniProt P35218).
Broadly, the pIC50 is −log10 of the IC50, conventionally taken in molar units. The compound `COC(=O)c1ccccc1S(N)(=O)=O` gave a negative logarithm of the IC50 (pIC50) of 4.27.

Regarding `NNc1ccccc1S(N)(=O)=O`, the pIC50 is 5.02.

Compound `NS(=O)(=O)c1nc2ccc([N+](=O)[O-])cc2s1` gave a pIC50 of 4.35.

Compound `N/C(S)=N/Nc1ccc(S(N)(=O)=O)cc1` had a pIC50 of 4.20.

Consider `Nc1ccc(S(N)(=O)=O)cc1I`, for which the negative-log IC50 (pIC50) is 5.03.

`NS(=O)(=O)c1ccc([N+](=O)[O-])cc1` had a pIC50 of 5.38.

In turn, `N#CSc1ccc(S(N)(=O)=O)cc1` gave a pIC50 of 5.07.

`NS(=O)(=O)c1cccc([N+](=O)[O-])c1` had a negative logarithm of the IC50 (pIC50) of 6.11.

In turn, `Nc1nccc(Nc2ccc(S(N)(=O)=O)cc2)n1` gave a pIC50 of 4.52.

Turning to `Nc1ccccc1S(N)(=O)=O`, the pIC50 was 4.82.

Consider `Nc1ccc(S(N)(=O)=O)cc1Br`, for which the pIC50 was 5.12.

`NS(=O)(=O)c1ccc(CCO)cc1` gave a negative logarithm of the IC50 (pIC50) of 4.77.

With `Nc1ccc(S(N)(=O)=O)cc1F`, the negative-log IC50 (pIC50) is 5.03.

Turning to `NS(=O)(=O)c1ccc(CO)cc1`, the pIC50 was 5.03.

Consider `NCCc1ccc(S(N)(=O)=O)cc1`, for which the negative logarithm of the IC50 (pIC50) was 4.37.

With `Nc1ccc(S(N)(=O)=O)cc1Cl`, the pIC50 is 5.13.

The compound `NNc1ccc(S(N)(=O)=O)cc1` had a negative-log IC50 (pIC50) of 5.11.

Compound `NS(=O)(=O)c1ccc(C(=O)O)cc1` [CARZENIDE] had a negative-log IC50 (pIC50) of 5.58.

Take `NCc1ccc(S(N)(=O)=O)cc1` [MAFENIDE]: the pIC50 is 4.56.

For the compound `Cc1ccc(S(N)(=O)=O)cc1` [P-TOLUENESULFONAMIDE], the pIC50 is 5.33.

In the case of `[H]/N=C(/N)NS(=O)(=O)c1ccc(N)cc1` [SULFAGUANIDINE], the pIC50 is under 4.00.

`Nc1ccc(S(N)(=O)=O)cc1` [SULFANILAMIDE] had a pIC50 of 4.49.

The target in a further assay is Carbonic anhydrase 2 (Homo sapiens, UniProt P00918).
With `NS(=O)(=O)c1nc2ccc([N+](=O)[O-])cc2s1`, the pIC50 is 6.60.

For `N/C(S)=N/Nc1ccc(S(N)(=O)=O)cc1`, the pIC50 was 6.54.

`NS(=O)(=O)c1ccc([N+](=O)[O-])cc1` showed a negative-log IC50 (pIC50) of 6.40.

Turning to `N#CSc1ccc(S(N)(=O)=O)cc1`, the pIC50 is 5.44.

As for `NS(=O)(=O)c1cccc([N+](=O)[O-])c1`, the negative-log IC50 (pIC50) is 6.39.

Take `[H]/N=C(/N)NS(=O)(=O)c1ccc(N)cc1` [SULFAGUANIDINE]: the pIC50 was under 4.00.

(Values after ChEMBL document CHEMBL1138639, “Carbonic anhydrase inhibitors: inhibition of human cytosolic isozyme II and mitochondrial isozyme V with a series of benzene sulfonamide derivatives” (Bioorg Med Chem Lett, 2004).)
